Test results: patent publication US20200171056A1, “SULFONYLUREA COMPOUNDS IN THE TREATMENT OF DISEASE ASSOCIATED WITH UV-INDUCED DAMAGE” (CeMM - Forschungszentrum für Molekulare Medizin GmbH, priority 2017, published 2020)

What was measured:
ΔXPA cells = assay: Short-term survival after UV irradiation (CellTiter-Glo); assay type: cell-based, human; conditions: for protective effect of ΔXPA cells against UV (cell viability): different concentrations for 6 hours, then 10 J/M^2 UV (FIG. 10A-C)
Text: A. Schematic representation of the experimental setup used to perform the high-throughput drug screen, where drugs were used at five-times maximal plasma concentration (CLOUD; CeMM library of unique drugs). B. Bubble plot displaying the drugs used plotted against cell viability. Light grey bubbles indicate wildtype (WT) cells, dark grey bubbles indicate XPA-deficient cells (ΔXPA). […] C. Chemical structure of acetohexamide. D. Dose-response curve of WT and ΔXPA cells treated with or without 0.5 mM acetohexamide for 6 hours, followed by UV irradiation. Survival was assessed after 3 days, using CellTiter-Glo. […] Error bars indicate SEM (n=3). E. Colony formation using the same conditions indicated in (D), where cells were kept in culture for 10 days following UV irradiation, following which they were fixed and stained.
A-C. Cell viability of ΔXPA cells treated with different concentrations of acetohexamide (aceto), gliclazide (GLC) and glimepiride (GLM) for 6 hours, followed by 10 J/M^2 of UV irradiation. D. Survival of WT and ΔXPA cells treated with or without 50 μM glibenclamide for 6 hours, followed by UV exposure. Survival was assessed after 3 days using CellTitre-Glo. E. Cell viability of ΔXPA cells treated with 10 μM of different derivatives of acetohexamide for 6 hours, followed by UV irradiation with 5 J/M^2.
(§1) For UV irradiation, cells were washed with PBS, trypsinized, counted and distributed in equal number then irradiated with different doses of UV as indicated. Finally, 1,000 cells were re-distributed into 96 well plates. After 72 hours, survival was measured using Cell Titer-Glo (Promega). Cells were irradiated with UVC using the UVP CX-2000 device (254 nm, Fisher Scientific).

WT cells = assay: Cell viability of WT cells after UV exposure, comparison with antioxidant; assay type: cell-based, human; conditions: 30 μM NAC for 6 hours, then 30 J/M^2 UV, compared with 0.5 mM acetohexamide (FIG. 8E)
Experimental: A. WT and ΔXPA cells were either treated with DMSO or 0.5 mM acetohexamide for 6 hours. Cell cycle profiles were determined using propidium iodide (P1) staining followed by FACS analysis. B-D. Survival of WT HAP1 cells treated with either DMSO or 0.5 mM acetohexamide for 6 hours, followed by exposure to the indicated DNA damaging agents (MMC: mitomycin C; HU: hydroxyl urea; MMS: methyl methanesulfonate). Survival was assessed after 3 days using CellTitre-Glo. E. Cell viability of WT cells treated either with 0.5 mM acetohexamide or 30 μM N-acetylcysteine (NAC) for 6 hours, followed by 30 J/M^2 UV exposure.
as §1

| Compound | protective effect of ΔXPA cells against UV (cell viability) (ΔXPA cells) | other results |
| --- | --- | --- |
| COc1ccc(Cl)cc1C(=O)NCCc1ccc(S(=O)(=O)NC(=O)NC2CCCCC2)cc1 [glibenclamide] |  | protective effect of ΔXPA cells against UV (survival) (ΔXPA cells; 50 μM for 6 hours, then UV, survival after 3 days (FIG. 10D)): Only glimepiride showed a protective effect |
| CCC1=C(C)CN(C(=O)NCCc2ccc(S(=O)(=O)NC(=O)N[C@H]3CC[C@H](C)CC3)cc2)C1=O [glimepiride] | showed a protective effect |  |
| CC(=O)N[C@@H](CS)C(=O)O [N-acetylcysteine] |  | alleviating UV-induced sensitivity (cell viability) (WT cells): very minor effect in alleviating UV-induced sensitivity compared to acetohexamide |
| Cc1ccc(S(=O)(=O)NC(=O)NN2CC3CCCC3C2)cc1 (stereo not shown) [gliclazide] | Only glimepiride showed a protective effect |  |
